The values that follow come from US7935482B2, “Gene expression profiling for identification monitoring and treatment of rheumatoid arthritis” (Source Precision Medicine, Inc., priority 2005, dated 2011).

The subject of data set [1] is Inflammation Gene Expression Panel. Put plainly: Quantitative RT-PCR gene expression in whole blood of treated RA patients relative to normal mean. In kind it is in vivo, human. Particulars: 22 patients pooled. The source says: For measuring the amount of a particular RNA in a sample, methods known to one of ordinary skill in the art were used to extract and quantify transcribed RNA from a sample with respect to a constituent of a Gene Expression Panel. (See detailed protocols below. Also see PCT application publication number WO 98/24935 herein incorporated by reference for RNA analysis protocols). Briefly, RNA is extracted from a sample such as a tissue, body fluid, or culture medium in which a population of cells of a subject might be growing. For example, cells may be lysed and RNA eluted in a suitable solution in which to conduct a DNAse reaction. First strand synthesis may be performed using a reverse transcriptase. Gene amplification, more specifically quantitative PCR assays, can then be conducted and the gene of interest calibrated against an internal marker such as 18S rRNA (Hirayama et al., Blood 92, 1998: 46-52). Any other endogenous marker can be used, such as 28S-25S rRNA and 5S rRNA. Samples are measured in multiple replicates, for example, 3 replicates. In an embodiment of the invention, quantitative PCR is performed using amplification, reporting agents and instruments such as those supplied commercially by Applied Biosystems (Foster City, Calif.). Given a defined efficiency of amplification of target transcripts, the point (e.g., cycle number) that signal from amplified target template is detectable may be directly related to the amount of specific message transcript in the measured sample. Similarly, other quantifiable signals such as fluorescence, enzyme activity, disintegrations per minute, absorbance, etc., when correlated to a known concentration of target templates (e.g., a reference standard curve) or normalized to a standard with limited variability can be used to quantify the number of target templates in an unknown sample.
As part of a larger international study involving patients with rheumatoid arthritis, the subject was followed over a twelve-week period. The subject was enrolled in the study because of a failure to respond to conservative drug therapy for rheumatoid arthritis and a plan to change therapy and begin immediate treatment with a TNF-inhibiting compound. Blood was drawn from the subject prior to initiation of new therapy (visit 1). After initiation of new TNF-inhibiting therapy, blood was drawn at 4 weeks post change in therapy (visit 2), 8 weeks (visit 3), and 12 weeks (visit 4) following the start of new therapy. Blood was collected using the PAXgene Blood RNA System™, held at room temperature for two hours and then frozen at −30° C.
Frozen samples were shipped to the central laboratory at Source Precision Medicine, the assignee herein, in Boulder, Colo. for determination of expression levels of genes in the 48-gene inflammation gene expression panel included in Tables 1 and 2. The blood samples were thawed and RNA extracted according to the manufacturer's recommended procedure. RNA was converted to cDNA and the level of expression of the 48 inflammatory genes was determined. Expression results are shown for 11 of the 48 loci in FIG. 3. […] Similarly, gene expression levels at each of the subsequent physician visits for each locus are compared to the same normal average value. […] In each visit following the change in the therapy, the level of inflammatory gene expression for 10 of the 11 loci is closer to the cognate locus average previously determined for the normal (i.e., undiagnosed, healthy) patient set. […]

The nature of data set [2]: Clinical assessment of RA patients during therapy (DAS, SJC, TJ, MDAD, HAQ). The data set is classed as in vivo, human. Particulars: 22 RA patients pooled over both regimens, FIG. 23; for Disease Activity Score (DAS): baseline 6.51.
The subject of data set [3] is Inflammation Gene Expression Panel (inflammation index). Put plainly: Inflammation index from whole-blood Gene Expression Profile of RA patients under therapy. In kind it is in vivo, human. The settings on record: for inflammation index compared to normal: clinically stable RA patients, 10 per treatment group, FIGS. 9-11, Remicade: all but one of the patients. From the text:
The values Ci and P(i) may be determined in a number of ways, so that the index I is informative of the pertinent biological condition. One way is to apply statistical techniques, such as latent class modeling, to the profile data sets to correlate clinical data or experimentally derived data, or other data pertinent to the biological condition. In this connection, for example, may be employed the software from Statistical Innovations, Belmont, Mass., called Latent Gold®. Alternatively, other simpler modeling techniques may be employed in a manner known in the art. The index function for inflammation may be constructed, for example, in a manner that a greater degree of inflammation (as determined by the profile data set for the Inflammation Gene Expression Panel included in Tables 1 and 2) correlates with a large value of the index function. In a simple embodiment, therefore, each P(i) may be +1 or −1, depending on whether the constituent increases or decreases with increasing inflammation. As discussed in further detail below, a meaningful inflammation index that is proportional to the expression, referred to herein as IR-105, was constructed as follows: ¼{IL1A}+¼{IL1B}+¼{TNF}+¼{INFG}[…],
FIG. 4A further illustrates the consistency of inflammatory gene expression, illustrated here with respect to 7 loci of (of the Inflammation Gene Expression Panel included in Tables 1 and 2), in a set of 44 normal, undiagnosed blood donors. For each individual locus is shown the range of values lying within ±2 standard deviations of the mean expression value, which corresponds to 95% of a normally distributed population. Notwithstanding the great width of the confidence interval (95%), the measured gene expression value (ΔCt)—remarkably—still lies within 10% of the mean, regardless of the expression level involved. As described in further detail below, for a given biological condition an index can be constructed to provide a measurement of the condition. This is possible as a result of the conjunction of two circumstances: (i) there is a remarkable consistency of Gene Expression Profiles with respect to a biological condition across a population and (ii) there can be employed procedures that provide substantially reproducible measurement of constituents in a Gene Expression Panel giving rise to a Gene Expression Profile, under measurement conditions wherein specificity and efficiencies of amplification for all constituents of the panel are substantially similar and which therefore provides a measurement of a biological condition. Accordingly, a function of the expression values of representative constituent loci of FIG. 4A is here used to generate an inflammation index value, which is normalized so that a reading of 1 corresponds to constituent expression values of healthy subjects, as shown in the right-hand portion of FIG. 4A.
FIG. 4C illustrates the use of the same index as FIG. 4B, where the inflammation median for a normal population of subjects has been set to zero and both normal and diseased subjects are plotted in standard deviation units relative to that median. An inflammation index value was determined for each member of a normal, undiagnosed population of 70 individuals (black bars). The resulting distribution of index values, shown in FIG. 4C, can be seen to approximate closely a normal distribution. Similarly, index values were calculated for individuals from two diseased population groups, (1) rheumatoid arthritis patients treated with methotrexate (MTX) who are about to change therapy to more efficacious drugs (e.g., TNF inhibitors)(hatched bars), and (2) rheumatoid arthritis patients treated with disease modifying anti-rheumatoid drugs (DMARDS) other than MTX, who are about to change therapy to more efficacious drugs (e.g., MTX). […] This figure thus illustrates the utility of an index to derived from Gene Expression Profile data to evaluate disease status and to provide an objective and quantifiable treatment objective. […]

The conditions of data set [4]: human, in vivo; cited from earlier work.
Where [5] appears, read: end of the study, 12 genes examined, FIG. 17.

In the case of anakinra [kineret], in data set [1] (setting [5]), the “number of genes still over-expressed to some extent” value was found to be 7 and the “number of genes transitioned to the under-expressed category” value was 4. Moreover, the “expression of PTGS2 (COX2) versus normal” value in data set [1] (end of the study, FIG. 17) is reported as “not statistically significantly different from normal”. Moreover, the “values of CD19 expression versus normals” value in data set [1] (from the start of the study until the end, FIG. 17) is listed as “all under-expressed”. Moreover, the “relative expression of the genes overexpressed at start (11 of 12 genes) versus normals” value in data set [1] (week 4, normals n=69, FIG. 17) is on record as “still over-expressed at week 4 but less so”. Besides, the “joint counts, MD assessment and patient self-score over the course of the study” value in data set [2] is recorded as “all went down”. Further, the “Disease Activity Score (DAS)” value in data set [2] (after 4 weeks) is on record as 5.35. For the same compound, the “Disease Activity Score (DAS)” value in data set [2] (end of the study) is listed as 4.88.
For the compound etanercept [Enbrel], the “patients with inflammation index in the normal range” value in data set [3] (10 clinically stable RA patients, FIG. 10) is reported as 80%. In data set [3], the “inflammation index compared to normal” value is reported as “comes much closer to normal”.
As for infliximab [Remicade], the “association with serious infections” value in data set [4] is recorded as “associated with serious infections in some subjects”. For the same compound, the “abnormally low inflammation index in two of the patients” value in data set [3] (10 clinically stable RA patients, FIG. 11) was “suggesting an immunosuppressive response”. In addition, the “inflammation index compared to normal” value in data set [3] is reported as “at or below normal”.
Regarding `CN(Cc1cnc2nc(N)nc(N)c2n1)c1ccc(C(=O)N[C@@H](CCC(=O)O)C(=O)O)cc1` [methotrexate], in data set [3] (RA patients about to change therapy to more efficacious drugs, FIG. 4C), the “distribution of inflammation index values in comparison to the normal distribution” value was “skewed upward”. The “inflammation index compared to normal” value in data set [3] was “elevated compared to normal”.
